Data on one molecule can be found in patent US20250288520A1, “Microemulsion Pharmaceutical Composition For Treatment Of Disorders Of The Anterior Segment Of The Eye” (SIFI S.P.A., priority 2022, published 2025).

The nature of the series: Bioavailability study in NZW rabbits after single dose topical administration, sorafenib content by LC-MS. The class given is in vivo. Here is the method: Bioavailability study in NZW rabbits after single dose administration (50 μL topical administration in the right eye) was conducted and content of sorafenib tosylate in plasma (PL), bulbar conjunctivae (BCJ), aqueous humor (AH), cornea (C), vitreous (V), retina (R), and sclera (SC) was evaluated after treatment at t=5, 15, 30, 60, 90, 120 min by LC-MS.
Thirty-six NZW male rabbits, weighing approximately 2 kg, were used in this study. The study was conducted in accordance with GLP standards at the test facility IRIS PHARMA. All animals were treated according to the Directive 2010/63/UE European Convention for the Protection of Vertebrate Animals used for Experimental and Other Scientific Purposes and to the ARVO Statement for the Use of Animals in Ophthalmic and Vision Research. All animals were housed individually in standard cages under identical temperature (18° C.±3° C.), relative humidity (45%-80%), and controlled enrichment conditions and exposed to a 12-h light and darkness cycle in continuously ventilated rooms (15-20 air volumes per hour). They received a standard dry pellet diet and water ad libitum. Only animals with no macroscopic ocular signs of irritation were involved in this study and randomly divided in six time-point groups of 6 animals each (Table 3).
Animals received a single 50 μL topical administration in the right eye and at the time-points listed in Table 3 they were anesthetized by an intramuscular injection of a mix xylazine/ketamine before euthanasia by an intracardiac injection of overdosed pentobarbital. The whole blood in EDTA anticoagulant tubes were sampled by intracardiac puncture, and plasma was prepared and frozen at −23° C.±7° C. Immediately after euthanasia, BCJ, AH, C, V, R, and SC were quickly and carefully dissected from both eyes and weighed, frozen in dry ice and at −23° C.±7° C. until assay. Content of sorafenib was determined in R and PL of both eyes in priority and in AH, BCJ, C, V and SC of both eyes following the rapid resolution liquid chromatography/tandem mass spectrometry method.

Structures are written as SMILES.

The molecule `CNC(=O)c1cc(Oc2ccc(NC(=O)Nc3ccc(Cl)c(C(F)(F)F)c3)cc2)ccn1` [sorafenib] came in with a concentration at 120 min (male, NZW, rabbit, cornea, topical, 50 μL, 120 min (2 h) post treatment, SD=±596) of 1710 ng/g. Also, the “time of sorafenib maximum content in retina of treated eyes” value (single 50 μL instillation in right eye) is on record as 5 min. Besides, the “sorafenib maximum content in retina of treated eyes” value (single 50 μL instillation in right eye, 5 min after treatment) is given as 170 ng/g. Further, the “sorafenib in retina of left untreated eyes” value (single 50 μL instillation in right eye, all rabbits) is on record as “no amount of sorafenib was detected”. In addition, the “highest detected amount of sorafenib in plasma” value (two hours after treatment) came to 2 ng/g.
